For five compounds, Kd results are on record in BindingDB's records for patent US20250059188 (Anaxis Pharma, 2025).

Holding throughout (assay): In Vitro Assay
Assay [1] has as its target T1, Mixed lineage kinase domain-like protein (Homo sapiens, UniProt Q8NB16).
T1 sequence (Q8NB16 whole entry): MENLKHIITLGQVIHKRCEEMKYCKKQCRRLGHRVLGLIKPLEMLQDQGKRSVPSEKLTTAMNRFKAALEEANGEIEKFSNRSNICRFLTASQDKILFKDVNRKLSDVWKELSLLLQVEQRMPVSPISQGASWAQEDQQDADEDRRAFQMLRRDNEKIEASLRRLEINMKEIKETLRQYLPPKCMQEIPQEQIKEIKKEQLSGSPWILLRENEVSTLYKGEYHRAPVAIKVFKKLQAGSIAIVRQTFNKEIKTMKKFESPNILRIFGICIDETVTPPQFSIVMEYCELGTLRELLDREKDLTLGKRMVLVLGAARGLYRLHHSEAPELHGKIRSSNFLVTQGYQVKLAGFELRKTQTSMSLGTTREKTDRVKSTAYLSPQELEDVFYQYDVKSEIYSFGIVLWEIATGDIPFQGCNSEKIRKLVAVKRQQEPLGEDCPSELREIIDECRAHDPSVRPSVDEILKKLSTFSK
The method, then:
(§1) For most assays, kinase-tagged T7 phage strains were grown in parallel in 24-well blocks in an E. coli host derived from the BL21 strain. E. coli were grown to log-phase and infected with T7 phage from a frozen stock (multiplicity of infection=0.4) and incubated with shaking at 32° C. until lysis (90-150 minutes). The lysates were centrifuged (6,000×g) and filtered (0.2 μm) to remove cell debris. The remaining kinases were produced in HEK-293 cells and subsequently tagged with DNA for qPCR detection. […] The liganded beads were blocked with excess biotin and washed with blocking buffer (SeaBlock (Pierce), 1% BSA, 0.05% Tween 20, 1 mM DTT) to remove unbound ligand and to reduce non-specific phage binding. […] All reactions were performed in polypropylene 384-well plates in a final volume of 20 μL. […] The kinase concentration in the eluates was measured by qPCR.

In assay [2] the target is Receptor-interacting serine/threonine-protein kinase 3 (Homo sapiens, UniProt Q9Y572). The method, then:
as §1

In assay [3] the target is T2, Receptor-interacting serine/threonine-protein kinase 1 (Homo sapiens, UniProt Q13546).
T2 sequence (Q13546 whole entry): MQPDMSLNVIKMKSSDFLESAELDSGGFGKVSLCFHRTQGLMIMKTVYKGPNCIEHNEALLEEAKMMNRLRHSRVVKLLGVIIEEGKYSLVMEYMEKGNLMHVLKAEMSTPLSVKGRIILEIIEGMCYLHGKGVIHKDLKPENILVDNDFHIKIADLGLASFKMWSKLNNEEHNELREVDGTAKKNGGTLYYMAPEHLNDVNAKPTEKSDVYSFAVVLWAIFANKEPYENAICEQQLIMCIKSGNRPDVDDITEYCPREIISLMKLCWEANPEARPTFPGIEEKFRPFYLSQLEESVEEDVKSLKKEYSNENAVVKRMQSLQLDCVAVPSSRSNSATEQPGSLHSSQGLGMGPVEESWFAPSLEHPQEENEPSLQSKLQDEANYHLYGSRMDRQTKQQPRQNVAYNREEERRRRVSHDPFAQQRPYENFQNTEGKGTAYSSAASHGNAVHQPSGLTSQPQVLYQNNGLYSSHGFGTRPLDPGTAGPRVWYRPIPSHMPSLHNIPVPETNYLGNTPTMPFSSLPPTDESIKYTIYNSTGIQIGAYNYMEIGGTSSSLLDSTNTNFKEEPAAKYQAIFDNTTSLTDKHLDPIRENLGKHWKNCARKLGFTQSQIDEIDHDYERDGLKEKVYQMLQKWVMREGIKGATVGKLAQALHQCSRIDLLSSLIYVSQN
The method, then:
as §1

Sequence of Receptor-interacting serine/threonine-protein kinase 3 (Q9Y572 whole entry): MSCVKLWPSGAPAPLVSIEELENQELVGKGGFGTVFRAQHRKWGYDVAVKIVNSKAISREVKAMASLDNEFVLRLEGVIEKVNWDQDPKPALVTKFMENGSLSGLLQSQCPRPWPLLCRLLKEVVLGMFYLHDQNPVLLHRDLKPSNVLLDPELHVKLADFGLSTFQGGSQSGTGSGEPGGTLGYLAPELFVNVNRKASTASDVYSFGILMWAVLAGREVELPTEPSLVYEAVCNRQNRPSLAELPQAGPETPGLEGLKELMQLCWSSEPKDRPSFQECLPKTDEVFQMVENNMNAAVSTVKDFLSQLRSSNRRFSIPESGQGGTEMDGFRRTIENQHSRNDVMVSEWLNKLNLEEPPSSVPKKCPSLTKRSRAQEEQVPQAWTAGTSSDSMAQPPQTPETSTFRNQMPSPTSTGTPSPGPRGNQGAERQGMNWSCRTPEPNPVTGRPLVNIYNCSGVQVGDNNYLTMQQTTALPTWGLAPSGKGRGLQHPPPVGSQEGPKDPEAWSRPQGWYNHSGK

For orientation: Kd means the free concentration of one partner at which half of the binding sites on the other are occupied at equilibrium, for simple one-to-one binding. Lower therefore signals higher affinity. Consider `C[C@H](Oc1cc(-c2nn(C)c3c(-c4cnn(C5CCC(N(C)C)C5)c4)cnc(N)c23)ccc1NS(=O)(=O)C(F)F)c1ccc(F)cc1` (some centres undefined) [US20250059188, Compound 168], for which the Kd in assay [1] is under 0.001 µM; in assay [2], over 10 µM; in assay [3] it was over 10 µM.

As to `COc1ccc([C@H](C)Oc2cc(-c3nn(C)c4c(-c5cnn(C6CCOCC6)c5)cnc(N)c34)ccc2NS(=O)(=O)C(F)F)cc1` [US20250059188, Compound 129], the values for the Kd in assay [1], in assay [2] and in assay [3] were under 0.001 µM, over 10 µM and over 10 µM, respectively.

As to `Cn1nc(-c2ccc(NS(=O)(=O)C(F)F)c(OCc3ccc(F)cc3)c2)c2c(N)ncc(-c3ccncc3)c21` [US20250059188, Compound 14], the Kd was under 0.001 µM in assay [1], over 10 µM in assay [2] and over 10 µM in assay [3].

Regarding `C[C@H](Oc1cc(-c2nn(C)c3c(-c4cnn(C5CCN(C)C(C(F)F)C5)c4)cnc(N)c23)ccc1NS(=O)(=O)C(F)F)c1ccc(F)cc1` (some centres undefined) [US20250059188, Compound 158], the Kd in assay [2] and in assay [3] was over 10 µM each time.

On to `C[C@H](Oc1cc(C2C=NN3C=CN=C(N)C23)ccc1NS(=O)(=O)C(F)F)c1ccc(F)cc1` (some centres undefined) [US20250059188, Compound 22], for which the Kd in assay [1] was under 0.001 µM; in assay [2], over 10 µM; in assay [3], over 10 µM.
